From patent publication US11628169B2, “Therapeutic drug for motor complications in Parkinson's disease” (Sumitomo Pharma Co., Ltd., priority 2020, dated 2023)
“Also recorded” adds a separate entry of the source.

Columns and labels:
[1] = test system: PD-LID rat model; test: ON score and ON time without dyskinesia in PD-LID rat model; format: in vivo; conditions: for total ON score (Locomotive behavior) in 3 hours: levodopa 5 min later
Procedure: To make a PD-LID rat model, a mixture of levodopa methyl ester hydrochloride (6 mg/kg; Sigma-Aldrich) dissolved in saline and benserazide hydrochloride (15 mg/kg; Sigma-Aldrich) (hereinafter, also referred to as “levodopa containing solution”) was intraperitoneally administered once daily to 6-OHDA-lesioned rats. The levodopa containing solution was repeatedly administered for 3 weeks or longer to observe and evaluate the behavior. The behavior was observed and evaluated in a transparent acrylic cage for 1 minute every 20 minutes after 20 minutes from the intraperitoneal administration of the levodopa containing solution, up until after 3 hours from administration. […] Individuals with a total AIMs score of less than 10 were excluded from the test as not manifesting a dyskinesia-like symptom. The behavior was observed and evaluated before the drug evaluation date. […] For an indicator of dyskinesia behavior, the sum of the Limb AIMs, Axial AIMs, and Orolingual AIMs at each evaluation point was used as the AIMs score. For the rotational behavior (ON score), Locomotive behavior at each evaluation point was used as an indicator. […] For ON time without dyskinesia, the period during which the AIMs score is 0 and Locomotive behavior is 1 or greater at each evaluation point was added. Duration of action of levodopa without a dyskinesia symptom (ON time without dyskinesia) refers to the aggregate time with no dyskinesia during the antiparkinsonian action effective time, i.e., “ON-time”, and defined as the time during which the dyskinesia symptom (AIMs) score is 0 and the rotational behavior (Locomotive behavior) score is 1 or greater at each evaluation point after levodopa administration. […] After 5 minutes, a levodopa containing solution was intraperitoneally administered, and the behavior was observed and evaluated. The results in the drawings are indicated in terms of mean value±standard error. […] For evaluation of a tape agent, the abdominal regions of the rats were shaved prior to the evaluation date. […] After 4 hours from application, a levodopa containing solution was intraperitoneally administered to observe and evaluation the behavior. The results in the drawings are indicated in terms of mean value±standard error. Individuals with 50% or more of the tape agent coming off during the test were excluded from analysis.

[2] = Plasma tandospirone concentration after observation of behavior in PD-LID rats; format: in vivo, rat; conditions: continuous subcutaneous infusion 60 mg/mL (mean 0.78 mg/kg/hour as citrate)
Procedure: 50 μL of rat plasma sample was fractionated into a polypropylene microtube. 50 μL of methanol (50 μL of standard solution for calibration curve sample) and 200 μL of internal standard solution (Bezafibrate methanol solution: 200 nmol/L, 200 μL of methanol for blank sample) are added and stirred for about 10 seconds with a mixer. This is centrifuged (4° C., 4500 rpm, 10 min), and then the supernatant is subjected to vacuum filtration using a filter (FastRemover MF 0.2 μm). 70 μL of aqueous 10 mmol/L ammonium acetate solution is added to 70 μL of the resulting filtrate and stirred for about 10 seconds with a mixer to prepare a measurement sample.
When evaluating a tape agent, the hair on the abdominal region of rats was shaved before the evaluation date. The tape agent of formulation 2 was applied to the abdominal regions of rats on the evaluation date at 60 cm^2/kg (37 mg/kg). After 4 hours from application, a levodopa containing solution was intraperitoneally administered to observe and evaluate the behavior. Individuals with 50% or more of the tape agent coming off during the test were excluded from analysis. […]
After 4 hours, a levodopa containing solution was administered to observe and evaluate the behavior (day 0 of implanting the pump). […] The behavior was also observed and evaluated on day 13 of implanting the pump.

[3] = test system: 6-OHDA-lesioned rats; test: Prevention/suppression of dyskinesia-like symptoms during repeated levodopa administration; format: in vivo, rat; conditions: vs solvent group; for increase in total AIMs score associated with repeated administration of levodopa: days 3, 5, 9, 15
Procedure: The prepared solution was used after injection into an ALZET® Osmotic Pump MODEL 2ML2 (4.53 μL/hour; DURECT).
6-OHDA-lesioned rats were assigned to each administration group using the number of apomorphine hydrochloride hemihydrate induced rotations and body weight as indicators. […] The osmotic pump implanted subcutaneously was retrieved after the observation and evaluation of behavior on day 15. The behavior was also observed and evaluated on the following day (day 16 of repeated administration of levodopa).
The test results were statistically analyzed by comparison with the solvent administration group using Steel test with the total AIMs score on day 16 of repeated levodopa administration as the parameter. * indicates p<0.05 and ** indicates p<0.01, meaning that there is a significant difference compared to the solvent administration group.

mean value of the plasma tandospirone concentrations (value converted in terms of free form) ([2]; day 0 of implanting the pump): 281 ng/mL
mean value of the plasma tandospirone concentrations (value converted in terms of free form) ([2]; day 13 of implanting the pump): 143 ng/mL
Substance: tandospirone citrate
(iii) Duration of action of levodopa without dyskinesia symptom (ON time without dyskinesia) ([1]; oral 20 mg/kg as free form (30 mg/kg as citrate), vs solvent group): increase in ON time without dyskinesia
total ON score (Locomotive behavior) in 3 hours ([1]; oral 30 mg/kg as citrate, vs solvent group): increase in the total ON score
(iii) Duration of action of levodopa without dyskinesia symptom (ON time without dyskinesia) ([1]; oral 67 mg/kg as free form (100 mg/kg as citrate), prolongation vs solvent group): significant prolongation in the ON-time without dyskinesia; also recorded: increase in ON time without dyskinesia
total ON score (Locomotive behavior) in 3 hours ([1]; oral 100 mg/kg as citrate, vs solvent group): increase in the total ON score
increase in total AIMs score associated with repeated administration of levodopa ([3]; continuous subcutaneous infusion 30 mg/mL (mean of 0.41 mg/kg/hour)): suppressed the increase in total AIMs score
total AIMs score on the day after completion of administration (day 16) ([3]; continuous subcutaneous infusion 30 mg/mL or 60 mg/mL, pump retrieved day 15): significantly lower
increase in total AIMs score associated with repeated administration of levodopa ([3]; continuous subcutaneous infusion 60 mg/mL (mean of 0.83 mg/kg/hour)): suppressed the increase in total AIMs score
